Assay results taken from patent publication US20240132431A1, “METHOD FOR ALKYLATING ACIDIC FUNCTIONAL GROUP” (Chugai Seiyaku Kabushiki Kaisha, priority 2021, published 2024).
Blank lines part the entries; values can stand above or below the compound they belong to.

Biological target: T1, Bcl-2 protein (Recombinant Human Bcl-2 Protein) (Homo sapiens, UniProt P10415)
T1 construct: purchased Novus NBP2-34889
Experiment: Binding evaluation of mixture library compounds to Bcl-2 using AS-MS (affinity selection mass spectrometry)
Conditions: for ASMS ratio (%) n = 1 / ASMS ratio (%) n = 2: ASMS Ratio(%)=(A−C)/B×100; for ASMS ratio (%) n = 1: replicate n = 1; for ASMS ratio (%) n = 2: replicate n = 2
In short: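 Readout is ASMS Ratio (%), (A−C)/B×100, from reversed-phase LC/MS of SEC-passed extracts, with protein-free unfiltered standard (B) and protein-free SEC blank (C). Recombinant human Bcl-2 at 20 μM final met ~1200 pooled compounds at […] each for 1 h, 23° C., dark, in Tris-HCl pH 7.4 buffer.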

[1] = AS-MS on the mixture of 1200 library compounds
[2] = AS-MS, mixture of 1200 compounds, Bcl-2

T1 sequence (P10415 whole entry): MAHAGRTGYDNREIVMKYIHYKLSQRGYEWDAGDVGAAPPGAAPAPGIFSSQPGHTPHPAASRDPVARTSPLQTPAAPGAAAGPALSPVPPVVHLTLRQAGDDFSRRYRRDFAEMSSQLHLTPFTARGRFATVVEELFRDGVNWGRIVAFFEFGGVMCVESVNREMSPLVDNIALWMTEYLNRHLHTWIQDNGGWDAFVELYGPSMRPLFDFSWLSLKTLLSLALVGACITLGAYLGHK

Compound: 6-[4-[3-(3-Ethoxyphenyl)-5-(trifluoromethyl)benzoyl]piperazin-1-yl]-N-propylpyridazine-3-carboxamide [B1M089-01]
- ASMS ratio (%) n = 1 [1]: 3.9%
- ASMS ratio (%) n = 2 [1]: 0.2%

Compound: CCOc1cncc(-c2ccc(C(=O)N3CCN(c4ccc(C(=O)NS(=O)(=O)c5ccc(NCCSc6ccccc6)c(C(F)(F)F)c5)cc4)CC3)cc2C)c1 [B2R026-01, 4-[4-[4-(5-Ethoxypyridin-3-yl)-3-methylbenzoyl]piperazin-1-yl]-N-[4-(2-phenylsulfanylethylamino)-3-(trifluoromethyl)phenyl]sulfonylbenzamide]
- ASMS ratio (%) (n = 1): 1.7%
- ASMS ratio (%) (n = 2): −4.6%

Compound: CCOc1cccc(-c2ccccc2CN2CCN(c3ccc(C(=O)NCC(F)(F)F)cc3)CC2)c1 [B1K045-01, 4-[4-[[2-(3-Ethoxyphenyl)phenyl]methyl]piperazin-1-yl]-N-(2,2,2-trifluoroethyl)benzamide]
- ASMS ratio (%) n = 1 [2]: 1.5%
- ASMS ratio (%) n = 2 [2]: −0.1%

Compound: CCOc1cncc(-c2ccc(C(=O)N3CCN(c4ccc(C(=O)NS(=O)(=O)c5ccc(NCCSc6ccccc6)c(C(F)(F)F)c5)cc4)CC3)cc2F)c1 [B2R028-01, 4-[4-[4-(5-Ethoxypyridin-3-yl)-3-fluorobenzoyl]piperazin-1-yl]-N-[4-(2-phenylsulfanylethylamino)-3-(trifluoromethyl)phenyl]sulfonylbenzamide]
- ASMS ratio (%) (n = 1): 4.1%
- ASMS ratio (%) (n = 2): −0.5%

Compound: CCCNC(=O)c1ccc(N2CCN(Cc3cc(OC(C)C)cc(-c4cccc(OCC)c4)c3)CC2)cc1 [B1M015-01]
- ASMS ratio (%) n = 1 [2]: −2.4%
- ASMS ratio (%) n = 2 [2]: −3.0%

Compound: 4-[4-[[4-(5-Ethoxypyridin-3-yl)-2,6-dimethoxyphenyl]methyl]piperazin-1-yl]-N-propylbenzamide [B1M022-01]
- ASMS ratio (%) n = 1 [2]: −13.6%
- ASMS ratio (%) n = 2 [2]: 6.7%

Compound: CCOc1cccc(-c2cnn(-c3cc(C(=O)N4CCN(c5ccc(C(=O)NS(=O)(=O)CC67CC8CC(CC(C8)C6)C7)cc5)CC4)cc(C(F)(F)F)c3)c2)c1 [B2A043-01, N-(1-Adamantylmethylsulfonyl)-4-[4-[3-[4-(3-ethoxyphenyl)pyrazol-1-yl]-5-(trifluoromethyl)benzoyl]piperazin-1-yl]benzamide]
- ASMS ratio (%) n = 1 (AS-MS, mixture library, Bcl-2): 14.0%
- ASMS ratio (%) n = 2 (AS-MS, mixture library, Bcl-2): 4.4%

Compound: 4-[4-[[4-(3-Ethoxyphenyl)-2-ethylphenyl]methyl]piperazin-1-yl]-N-propylbenzamide [B1M069-01]
- ASMS ratio (%) n = 1 [2]: −0.2%
- ASMS ratio (%) n = 2 [2]: −4.4%

Compound: 6-[4-[4-(5-Ethoxypyridin-3-yl)naphthalene-1-carbonyl]piperazin-1-yl]-N-propylpyridazine-3-carboxamide [B1M072-01]
- ASMS ratio (%) n = 1 [2]: 0.0%
- ASMS ratio (%) n = 2 [2]: 1.9%

Compound: CCOc1cccc(C#Cc2ccccc2C(=O)N2CCN(c3ccc(C(=O)Nc4ccc(OC)cc4)nn3)CC2)c1 [B1O007-01, 6-[4-[2-[2-(3-Ethoxyphenyl)ethynyl]benzoyl]piperazin-1-yl]-N-(4-methoxyphenyl)pyridazine-3-carboxamide]
- ASMS ratio (%) n = 1 [1]: 4.5%
- ASMS ratio (%) n = 2 [1]: 0.9%

Compound: 4-[4-[[4-(3-Ethoxyphenyl)naphthalen-1-yl]methyl]piperazin-1-yl]-N-propylbenzamide [B1M044-01]
- ASMS ratio (%) n = 1 [2]: 1.0%
- ASMS ratio (%) n = 2 [2]: 1.1%

Compound: CCOc1cncc(-c2ccc(C(=O)N3CCN(c4ccc(C(=O)NCC56CC7CC(CC(C7)C5)C6)cc4)CC3)c3ccccc23)c1 [B1A036-01, N-(1-Adamantylmethyl)-4-[4-[4-(5-ethoxypyridin-3-yl)naphthalene-1-carbonyl]piperazin-1-yl]benzamide]
- ASMS ratio (%) n = 1 [2]: 0.4%
- ASMS ratio (%) n = 2 [2]: 3.1%

Compound: CCOc1cccc(-c2ccccc2CCC(=O)N2CCN(c3ccc(C(=O)N(CC)CC)cc3)CC2)c1 [B4J033-01, 4-[4-[3-[2-(3-Ethoxyphenyl)phenyl]propanoyl]piperazin-1-yl]-N,N-diethylbenzamide]
- ASMS ratio (%) n = 1 [1]: 0.0%
- ASMS ratio (%) n = 2 [1]: −0.9%

Compound: CCOc1cncc(-c2ccc(C(=O)N3CCN(c4ccc(C(=O)NS(=O)(=O)CC56CC7CC(CC(C7)C5)C6)cc4)CC3)cc2F)c1 [B2A028-01, N-(1-Adamantylmethylsulfonyl)-4-[4-[4-(5-ethoxypyridin-3-yl)-3-fluorobenzoyl]piperazin-1-yl]benzamide]
- ASMS ratio (%) n = 1 (AS-MS, mixture library, Bcl-2): −1.0%
- ASMS ratio (%) n = 2 (AS-MS, mixture library, Bcl-2): 1.2%

Compound: CCOc1cccc(-c2ccc(C(C)N3CCN(c4ccc(C(=O)NS(=O)(=O)c5ccc(NCCSc6ccccc6)c([N+](=O)[O-])c5)cc4)CC3)c(F)c2)c1 (stereo not shown) [B2Q099-01, 4-[4-[1-[4-(3-Ethoxyphenyl)-2-fluorophenyl]ethyl]piperazin-1-yl]-N-[3-nitro-4-(2-phenylsulfanylethylamino)phenyl]sulfonylbenzamide]
- ASMS ratio (%) n = 2 (AS-MS, mixture library, Bcl-2): 0.0%

Results, then the compound that gave them:

- ASMS ratio (%) n = 1 (AS-MS, mixture library, Bcl-2): 2.1%
- ASMS ratio (%) n = 2 (AS-MS, mixture library, Bcl-2): 0.0%
Compound: CCOc1cccc(-c2ccc(CN3CCN(c4ccc(C(=O)N(CC)CC)nn4)CC3)cc2C)c1 [B4J073-01, 6-[4-[[4-(3-Ethoxyphenyl)-3-methylphenyl]methyl]piperazin-1-yl]-N,N-diethylpyridazine-3-carboxamide]

- ASMS ratio (%) n = 1 (AS-MS, mixture library, Bcl-2): 24.5%
- ASMS ratio (%) n = 2 (AS-MS, mixture library, Bcl-2): 17.2%
Compound: CCOc1cncc(-c2csc(C(=O)N3CCN(c4ccc(C(=O)NS(=O)(=O)c5ccc(NCCSc6ccccc6)c([N+](=O)[O-])c5)nn4)CC3)c2)c1 [B2Q002-01, 6-[4-[4-(5-Ethoxypyridin-3-yl)thiophene-2-carbonyl]piperazin-1-yl]-N-[3-nitro-4-(2-phenylsulfanylethylamino)phenyl]sulfonylpyridazine-3-carboxamide]

- ASMS ratio (%) (n = 1): 0.0%
- ASMS ratio (%) (n = 2): 0.0%
Compound: CCOc1cccc(-c2cc(C(=O)N3CCN(c4ccc(C(=O)NS(=O)(=O)C(C)(C)C)nn4)CC3)cc(C(F)(F)F)c2)c1 [B2L017-01, N-tert-Butylsulfonyl-6-[4-[3-(3-ethoxyphenyl)-5-(trifluoromethyl)benzoyl]piperazin-1-yl]pyridazine-3-carboxamide]

- ASMS ratio (%) n = 1 (AS-MS, mixture library, Bcl-2): 17.2%
- ASMS ratio (%) n = 2 (AS-MS, mixture library, Bcl-2): −5.0%
Compound: CCOc1cccc(-c2ccc(CN3CCN(c4ccc(C(=O)NS(=O)(=O)c5ccc(NCCSc6ccccc6)c([N+](=O)[O-])c5)nn4)CC3)c3ccccc23)c1 [B2Q091-01, 6-[4-[[4-(3-Ethoxyphenyl)naphthalen-1-yl]methyl]piperazin-1-yl]-N-[3-nitro-4-(2-phenylsulfanylethylamino)phenyl]sulfonylpyridazine-3-carboxamide]

- ASMS ratio (%) n = 1 (AS-MS, mixture library, Bcl-2): 9.3%
- ASMS ratio (%) n = 2 (AS-MS, mixture library, Bcl-2): 14.5%
Compound: CCOc1cncc(-c2ccc(C(=O)N3CCN(c4ccc(C(=O)NS(=O)(=O)c5ccc(NCCSc6ccccc6)c([N+](=O)[O-])c5)nn4)CC3)c3ccccc23)c1 [B2Q014-01, 6-[4-[4-(5-Ethoxypyridin-3-yl)naphthalene-1-carbonyl]piperazin-1-yl]-N-[3-nitro-4-(2-phenylsulfanylethylamino)phenyl]sulfonylpyridazine-3-carboxamide]

- ASMS ratio (%) n = 1 [1]: −17.6%
- ASMS ratio (%) n = 2 [1]: −7.4%
Compound: CCOc1cncc(-c2cc(CN3CCN(c4ccc(C(=O)N(C)CC56CC7CC(CC(C7)C5)C6)nn4)CC3)cc(OC(C)C)c2)c1 [B3A084-01, N-(1-Adamantylmethyl)-6-[4-[[3-(5-ethoxypyridin-3-yl)-5-propan-2-yloxyphenyl]methyl]piperazin-1-yl]-N-methylpyridazine-3-carboxamide]

- ASMS ratio (%) (n = 1): 0.0%
- ASMS ratio (%) (n = 2): 0.1%
Compound: CCOc1cncc(-c2ccccc2CN2CCN(c3ccc(C(=O)NS(=O)(=O)CCC(F)(F)F)nn3)CC2)c1 [B2N072-01]

- ASMS ratio (%) (n = 1): 0.0%
- ASMS ratio (%) (n = 2): 0.0%
Compound: CCOc1cncc(-c2csc(CN3CCN(c4ccc(C(=O)NS(C)(=O)=O)nn4)CC3)c2)c1 [B2I094-01, 6-[4-[[4-(5-Ethoxypyridin-3-yl)thiophen-2-yl]methyl]piperazin-1-yl]-N-methylsulfonylpyridazine-3-carboxamide]

- ASMS ratio (%) (n = 1): 0.0%
- ASMS ratio (%) (n = 2): 0.0%
Compound: CCOc1cccc(-c2cc(CN3CCN(c4ccc(C(=O)NS(=O)(=O)CCC(F)(F)F)cc4)CC3)cc(OCC)c2)c1 [B2N055-01, 4-[4-[[3-Ethoxy-5-(3-ethoxyphenyl)phenyl]methyl]piperazin-1-yl]-N-(3,3,3-trifluoropropylsulfonyl)benzamide]

- ASMS ratio (%) (n = 2): 0.0%
Compound: CCOc1cccc(-c2cnn(-c3cc(C(=O)N4CCN(c5ccc(C(=O)NS(=O)(=O)CCC(F)(F)F)nn5)CC4)cc(C(F)(F)F)c3)c2)c1 [B2N021-01, 6-[4-[3-[4-(3-Ethoxyphenyl)pyrazol-1-yl]-5-(trifluoromethyl)benzoyl]piperazin-1-yl]-N-(3,3,3-trifluoropropylsulfonyl)pyridazine-3-carboxamide]

- ASMS ratio (%) (n = 1): 0.0%
- ASMS ratio (%) (n = 2): 0.0%
Compound: CCOc1cccc(-c2cc(OC)c(CN3CCN(c4ccc(C(=O)NS(C)(=O)=O)nn4)CC3)c(OC)c2)c1 [B2I085-01, 6-[4-[[4-(3-Ethoxyphenyl)-2,6-dimethoxyphenyl]methyl]piperazin-1-yl]-N-methylsulfonylpyridazine-3-carboxamide]

- ASMS ratio (%) (n = 1): 56.5%
- ASMS ratio (%) (n = 2): 0.0%
Compound: CCOc1cccc(-c2csc(CN3CCN(c4ccc(C(=O)NS(=O)(=O)c5ccc(NCCSc6ccccc6)c(C(F)(F)F)c5)nn4)CC3)c2)c1 [B2R093-01, 6-[4-[[4-(3-Ethoxyphenyl)thiophen-2-yl]methyl]piperazin-1-yl]-N-[4-(2-phenylsulfanylethylamino)-3-(trifluoromethyl)phenyl]sulfonylpyridazine-3-carboxamide]
